In brackets after ≈: the same amount, converted by molar mass.
Legend:
[1] = biological target: T1, Human sputum elastase (HSE) / Human Leukocyte Elastase (HLE) (Homo sapiens, UniProt P08246); assay: Elastase Inhibition--In Vitro Method (hydrolysis of MeO-Suc-Ala-Ala-Pro-Val-pNA, microtiter format); type: biochemical; settings: for % inhib. (5 ug/mL) 0% HSA / % inhib. (5 ug/mL) 0.5% HSA: 5 ug/mL compound; for % inhib. (5 ug/mL) 0.5% HSA: 0.5% HSA added; for IC50: Table I, 0.5 mM substrate, 15 minutes pre-incubation
T1 construct: Human sputum elastase (HSE ) (Elasten Products Co., Pacific, Mo.); purchased Elasten Products Co., Pacific, Mo; host or cells: human sputum
T1 sequence (P08246 30-267): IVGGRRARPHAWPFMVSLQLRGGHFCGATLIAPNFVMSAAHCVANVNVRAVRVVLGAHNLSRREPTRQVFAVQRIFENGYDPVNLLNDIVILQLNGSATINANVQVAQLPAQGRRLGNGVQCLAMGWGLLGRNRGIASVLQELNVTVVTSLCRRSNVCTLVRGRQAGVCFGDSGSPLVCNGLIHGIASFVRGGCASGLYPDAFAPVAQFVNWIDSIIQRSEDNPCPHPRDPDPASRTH

[2] = biological target: T2, human neutrophil elastase (HNE) (Homo sapiens, UniProt P08246); assay: Elastase Inhibition--Animal Model (acute hamster hemorrhage model, HNE instilled i.t.); type: in vivo, Syrian Golden Hamsters; settings: compound 20 ug i.t. three to five minutes before 50 μg HNE i.t., lung lavage hemorrhage at 18 hours
T2 construct: purified preparations of human neutrophil elastase (HNE); purchased Elastin Products Co., Pacific, MO
T2 sequence (P08246 30-247 limits assumed): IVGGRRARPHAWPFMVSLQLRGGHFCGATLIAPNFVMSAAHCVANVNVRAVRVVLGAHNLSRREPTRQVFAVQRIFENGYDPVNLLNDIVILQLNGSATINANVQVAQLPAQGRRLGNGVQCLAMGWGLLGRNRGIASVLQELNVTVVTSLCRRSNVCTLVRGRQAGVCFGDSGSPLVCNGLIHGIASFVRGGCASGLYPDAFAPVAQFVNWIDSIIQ
Procedure: When instilled into the lungs of hamsters, purified preparations of human neutrophil elastase (HNE) will produce an emphysema like state. Acute challenge (18 hours) with 50 μg of HNE results in pulmonary hemorrhage which can be readily quantitated by measuring total RBC's (red blood count) and hemogloblin concentration of lung lavage samples.
HNE (obtained from Elastin Products Co., Pacific, MO) was diluted to 250 μg/mL in 0.9% sterile saline. Syrian Golden Hamsters, males, weighing approximately 90-130 grams, were obtained from Charles River Laboratories. The experiments described below are conducted using at least three animals per group.
Anesthesia required for the intratracheal administration of compounds and elastase was induced by the i.p. injection of Ketamine hydrochloride, 10 mg/100 gram body weight plus Xylazine, 1 mg/100 gram body weight.
Hamsters were anesthetized as described above and the trachea were surgically exposed. Test compounds were administered via 27g needle inserted directly into the trachea in 0.1 mL volume followed by 0.1 mL saline push. […]
Samples were concentrated by centrifugation (1500 rpm, 10 minutes) and brought up to 1.0 mL in saline. Homoglobin concentration was determined spectrophotometrically (540 nm) by the cyanmethemoglobin method using 200 μL sample to 2.5 mL cranmethoglobin reagent (Data Medical Associates, Arlington, Tx.).

% inhib. (5 ug/mL) 0% HSA [1] [%]	% inhib. (5 ug/mL) 0.5% HSA [1] [%]	IC50 [1] [µg/mL]	% inhib. (20 ug, i.t.) [2] [%]	Compound
100	99.4	0.082 (≈ 0.155 µM)	–	CC(C)C(NC(=O)CN(C(=O)[C@@H](NC(=O)OCc1ccccc1)C(C)C)C1CCCC1)C(=O)C(F)(F)F (some centres unmarked) [Cyclopentyl; CBZ]
95.1	87.8	0.432 (≈ 0.693 µM)	–	COc1ccc(CCN(CC(=O)NC(C(=O)C(F)(F)F)C(C)C)C(=O)[C@@H](NC(=O)OCc2ccccc2)C(C)C)cc1OC (some centres unmarked) [3,4-Dimethoxyphenethyl; CBZ]
98.8	96.3	0.0838 (≈ 0.103 µM)	90.2	COc1ccc(CCN(CC(=O)NC(C(=O)C(F)(F)F)C(C)C)C(=O)[C@@H](NC(=O)c2ccc(C(=O)NS(=O)(=O)c3ccc(Cl)cc3)cc2)C(C)C)cc1OC (stereo partly drawn) [[[4-(4-Chlorophenylsulfonylaminocarbonyl]phenyl-1-oxomethyl]-L-Valyl-N-2-(3 , 4-dimethoxy)phenethyl] glycyl-N-[3-(1,1,1-trifluoro-4-methyl-2-oxypentyl)] amide]
99.8	99.5	0.045 (≈ 0.0607 µM)	93.8	CC(C)C(NC(=O)CN(C(=O)[C@@H](NC(=O)c1ccc(C(=O)NS(=O)(=O)c2ccc(Cl)cc2)cc1)C(C)C)C1CC2CCC1C2)C(=O)C(F)(F)F (stereo partly drawn) [[[4-(4-Chlorophenyl)sulfonylaminocarbonyl]phenyl-1-oxomethyl]-L-Valyl-N-(exo-bicyclo[2,2,1]hept-2-yl)-glycyl-N-[3-(1,1,1-trifluoro-4-methyl-2-oxypentyl)] amide.]

Reference: patent US5221665A, “N-substituted amides” (Boehringer Ingelheim Pharmaceuticals, Inc., priority 1991, dated 1993)
